Measured values from patent publication US20120149645A1, “COMPOSITIONS AND MODULATION OF MYOCYTE ENHANCER FACTOR 2 (MEF2)” (EMORY UNIVERSITY, priority 2010, published 2012).

B1: MEF2D1-131: dominant-negative form of MEF2D which interferes with nuclear MEF2 function (protein, UniProt Q63943 1-131, looked up, fragment)
chain: MGRKKIQIQRITDERNRQVTFTKRKFGLMKKAYELSVLCDCEIALIIFNHSNKLFQYASTDMDKVLLKYTEYNEPHESRTNADIIETLRKKGFNGCDSPEPDGEDSLEQSPLLEDKYRRASEELDGLFRRY
B2: Mt2D: Mitochondria-targeting active MEF2D: mouse MEF2D 1-493aa with added mitochondria-targeting signal, lacking nuclear localization signals (protein, UniProt Q63943 1-493, looked up, fragment)
chain: MGRKKIQIQRITDERNRQVTFTKRKFGLMKKAYELSVLCDCEIALIIFNHSNKLFQYASTDMDKVLLKYTEYNEPHESRTNADIIETLRKKGFNGCDSPEPDGEDSLEQSPLLEDKYRRASEELDGLFRRYGSSVPAPNFAMPVTVPVSNQSSMQFSNPSSSLVTPSLVTSSLTDPRLLSPQQPALQRNSVSPGLPQRPASAGAMLGGDLNSANGACPSPVGNGYVSARASPGLLPVANGNSLNKVIPAKSPPPPTHNTQLGAPSRKPDLRVITSQGGKGLMHHLTEDHLDLNNAQRLGVSQSTHSLTTPVVSVATPSLLSQGLPFSSMPTAYNTDYQLPSAELSSLPAFSSPAGLALGNVTAWQQPQPPQQPQPPQPPQSQPQPPQPQPQQPPQQQPHLVPVSLSNLIPGSPLPHVGAALTVTTHPHISIKSEPVSPSRERSPAPPPPAVFPAARPEPGEGLSSPAGGSYETGDRDDGRGDFGPTLGLLRPA
modifications: mitochondria-targeting signal added

Tests used:
SN4741 cells [1] = experiment: WST-1 cell viability assay; type: cell-based, mouse; details: SN4741 cells; different doses of MPP+ for 24 hours
Procedure: (§1) (A) Reduced binding of MEF2D to ND6 after neurotoxin treatment. SN4741 cells were treated with MPP+ (25 μM) or rotenone (Rot, 100 nM) for 12 hours. […] Control indicates untreated. […] Control indicates untreated. (C) Immunocytochemical analysis of mitochondrial MEF2D after MPP+ and rotenone treatment. SN4741 cells treated as described in (A) were stained (scale bar, 10 μm). […] Experiments were repeated four times. Control indicates untreated. […] SN4741 cells were treated with MPP+ after infection with the control, Mt2Ddn or Mt2DVP16 or MtND6 lentiviruses for 24 hours (upper graph: different doses of MPP+ for 24 hours; lower graph: 5 μM of MPP+ for different times). Cell viability was measured by WST-1 assay (n=4; *p<0.05; **P<0.01). Control indicates the control vector group.
WST-1 assay was done using a kit (cat. no. 11644807001) from Roche and following procedures provided by the manufacturer. WST-1 (4-[3-(4-Iodophenyl)-2-(4-nitrophenyl)-2H-5-tetrazolio]-1,3-benzene disulfonate) is a water-soluble tetrazolium salt whose cleavage by cellular enzymes correlates with cell viability. Cells were seeded in 96-well plates and treated as indicated. Than 10 μl/well of premixed WST-1 Cell Proliferation Reagent was added, and the cells were incubated for an additional 4 hr under the same conditions. Absorbance at 450 nm was measured on a multi-well plate reader (Bio-Tek).

MEF2D and ND6 proteins = experiment: Western blotting of MEF2D, ND6 and PGC1 protein levels in SN4741 cells; type: cell-based, mouse; details: for level of ND6 protein / level of mitochondrial MEF2D protein / level of MEF2D in the nucleus / level of MEF2D in whole cell: SN4741 cells; for level of ND6 protein / level of mitochondrial MEF2D protein: purified mitochondria, MPP+ 25 μM or rotenone 100 nM for 12 hours; for level of MEF2D in the nucleus / level of MEF2D in whole cell: same toxicant condition
Text: (§2) (A) Mitochondria-targeting MEF2D (Mt2D) and mitochondria-targeting dominant-negative MEF2D (Mt2Ddn), which lacks the transactivation domain (TAD). […] Control indicates the control vector group. (C) Effects of Mt2D or Mt2Ddn on ND6 expression in SN4741 cells. Over-expression of Mt2Ddn in SN4741 cells reduced ND6 but not PPAR-γ coactivator 1 (PGC1) expression by western blotting (n=4, **p<0.01). Control indicates the control vector group. (D) Effects of over-expression of Mt2D or Mt2Ddn on mRNA levels of mitochondria encoded genes. […] Control indicates the control vector group. (E) Effects of Mt2D or Mt2Ddn on mtDNA L-strand transcription initiation in vitro (n=3; **P<0.01). A human mtDNA fragment containing mitochondrial L-strand promoter (LSP) and ND6 gene was used in the in vitro transcription assay. […] (F) Effects of Mt2D or Mt2Ddn on mtDNA de novo transcription in vivo (n=3; **P<0.01). Control (−) is without primers. Control (+) indicates the control vector group.
as §1
(§3) (A) Diagrams of Mt2DVP16 and MtND6. Mt2DVP16 was constructed by fusion of transactivation domain (TAD) of VP16 with DNA-binding domain of MEF2D and a mitochondria-targeting sequence (Mito). […] (C) Over-expression of Mt2DVP16 attenuated MEF2D siRNA-induced reduction of ND6 expression (n=3, **P<0.01).

ND6 mRNA = experiment: Real-time PCR of mitochondria-encoded mRNA levels in SN4741 cells; type: cell-based, mouse; details: SN4741 cells; relatively short exposure to toxicant
Text: as §2

MEF2D binding to ND6 = experiment: ChIP assay of MEF2D binding to the ND6 MEF2 site in purified mitochondria; type: cell-based, mouse; details: for binding of mitochondrial MEF2D to the ND6 MEF2 site: SN4741 cells, MPP+ 25 μM or rotenone 100 nM for 12 hours
Text: as §2, §1
Andres et al., J Biol Chem, 1995, 270:23246-23249. Moreover, this putative MEF2 binding site is conserved among several species. To test whether MEF2D binds to this putative MEF2 site, electronic mobility shift assay (EMSA) was performed. N-terminal MEF2D formed a complex with the labeled probe containing the ND6 MEF2 site. […] To corroborate this finding, a chromatin immunoprecipitation (ChIP) assay was carried out using highly purified mitochondria. […] ND6 but not ND2 based primers could amplify the bound sequence (FIG. 3C). Sequence analysis of the DNA bound by MEF2D after amplification confirmed the presence of the ND6 MEF2 site (FIG. 3D).

SN4741 cells [2] = experiment: Immunocytochemistry, colocalization of MEF2D with MitoTracker; type: cell-based, mouse; details: SN4741 cells and primary midbrain dopamine neurons; toxicant treatment
Procedure: as §1
SN4741 cells or primary midbrain DA neurons were plated on glass slides in 24-well plates. Localizations of endogenous and exogenous MEF2D were visualized on a Zeiss LSM5 PASCAL confocal microscope. To visualize colocalization of MEF2D with the mitochondria, cells were stained with MitoTracker (Invitrogen) and anti-MEF2D (BD Bioscience) or anti-FLAG (Sigma) antibodies. Quantification of colocalization of signals was done using “Colocalization Analysis” program of software Image Pro (Media Cybernetics). Overlap coefficients of 50 cells in each group were collected. […]

nuclear MEF2 = experiment: MEF2 luciferase reporter assay; type: cell-based; details: co-transfected with MEF2 luciferase reporter
Text: (§4) Control indicates the group co-tranfected with control vector.
MEF2 luciferase reporter assay was done as described Wang et al., J Biol Chem, 2005, 280:16705-16713. Briefly, cells were transiently transfected with various constructs with MEF2 luciferase reporter plasmid (WT, reporter with wild type MEF2 DNA binding sites; mt, reporter with the MEF2 DNA binding sites mutated) using Lipofectimane 2000 (Invitrogen) following procedures provided by the manufacturer. A β-galactosidase expression plasmid was used to determine the efficiency in each transfection. The total amount of DNA for each transfection was kept constant by using control vectors. Cell lysates were analyzed for luciferase and β-galactosidase activity according to the manufacturer's instructions (Roche, cat. no. 11669893001).

SN4741 cells [3] = experiment: Subcellular localization of over-expressed MEF2D constructs; type: cell-based, mouse; details: over-expressed in SN4741 cells
Text: (A) Lack of mitochondrial localization by ΔN30MEF2D. […] VDAC, PARP and c-Raf are Mt, Nu and Cy markers, respectively. Control indicates the control vector group. (B) Immunocytochemistry analysis of mitochondrial localization of transfected Flag-MEF2D. […] Experiments were repeated four times. (C, D) Requirement of mtHsp70 for mitochondria-targeting of MEF2D (n=4; **p<0.01). Control indicates untreated. […]. Knocking down mouse mtHsp70 by siRNA reduced MEF2D level in purified mitochondria from SN4741 cells (C). […] MnSOD is a known mtHsp70-imported mitochondrial matrix protein.
as §3, §4
SN4741 cells or primary midbrain DA neurons were plated on glass slides in 24-well plates. Localizations of endogenous and exogenous MEF2D were visualized on a Zeiss LSM5 PASCAL confocal microscope. […] Quantification of colocalization of signals was done using “Colocalization Analysis” program of software Image Pro (Media Cybernetics). […]

mitochondrial complex I = experiment: Mitochondrial complex protein level and activity (BN-PAGE, in-gel staining, quantitative assays); type: cell-based, mouse; details: over-expression in SN4741 cells
Text: (§5) (A) Requirement of mitochondrial MEF2D for complex I activity. […] Control indicates the control vector group. (B) Over-expression of ND6 rescued complex I activity reduced by Mt2Ddn. Control indicates the control vector group. (C) Measurement of various complex activities. […] Control indicates the control vector group. (D) Effects of over-expression of Mt2D or Mt2Ddn on mitochondrial function. Mt2Ddn reduced cellular ATP level and elevated H2O2 production in SN4741 cells (n=4; *p<0.05; **P<0.01). Control indicates the control vector group.
(§6) Mitochondrial complex I activity was evaluated initially by blue native-polyacrylamide gel electrophoresis (BN-PAGE) and in-gel activity staining. This assay measures total complex I activity. Rotenone sensitive complex I activity and activities of other mitochondrial complexes were further measured by methods described by Antoni et al., J Biol Chem, 1998, 273:14210-14217. Briefly, parallel assays were performed to measure complex I activity at 340 nm using 2,3-dimethoxy-5-methyl-6-n-decyl-1,4-benzoquinone (DB) (50 μM) as acceptor and NADH (0.8 mM) as donor, in 50 mM Tris (pH 8.0) buffer supplemented with 5 mg/ml BSA either without or with the addition of 4 μM rotenone, which gave total and rotenone insensitive complex I activities, respectively. The difference in value between the two provided a quantified measure of the rotenone-sensitive activity. Mitochondrial membrane potential was detected using a kit (cat. no. 280002) from Stratagene following the procedures provided by the manufacturer. The fluorescent dye JC-1 (5,5′,6,6′-tetrachloro-1,1′,3,3′-tetraethylbenzimidazolyl carbocyanine iodide) stains mitochondria red in a membrane potential dependent manner. Briefly, cells were seeded in 96-well plates at 4×10^4 cells/well with 100 μl culture medium and incubated at 33° C. with 5% CO2. After treatment, 10 μl/well of premixed JC-1 staining solution was added, and the cells were incubated for an additional 30 min under the same conditions. After thorough washes, 100 μl assay buffer was added to each well. Fluorescence signal was detected with excitation and emission at 520 nm and 590 nm, respectively, on a multi-well plate reader (Bio-Tek). Cellular ATP and H202 were measured by Bioluminescent Somatic Cell ATP Assay Kit (Sigma) and Hydrogen Peroxide Assay Kit (Cayman), respectively.

SN4741 cells [4] = experiment: Mitochondrial functional assays (ATP, H2O2, membrane potential); type: cell-based, mouse; details: over-expression in SN4741 cells
Text: as §5, §6

[5] = system: human mtDNA fragment containing mitochondrial L-strand promoter (LSP) and ND6 gene; experiment: In vitro mtDNA L-strand transcription assay; type: biochemical
Text: as §2

[6] = construct over-expressed in SN4741 cells

Row | Molecule | neuronal viability (SN4741 cells [1]) | level of ND6 protein (MEF2D and ND6 proteins) | level of mitochondrial MEF2D protein (MEF2D and ND6 proteins) | level of MEF2D in the nucleus (MEF2D and ND6 proteins) | level of MEF2D in whole cell (MEF2D and ND6 proteins) | mRNA level of ND6 (ND6 mRNA) | binding of mitochondrial MEF2D to the ND6 MEF2 site (MEF2D binding to ND6) | colocalization of MEF2D and MitoTracker signals (SN4741 cells [2]) | nuclear MEF2 activity (MEF2 reporter) (nuclear MEF2) | mitochondrial localization by immunocytochemical staining (MitoTracker) (SN4741 cells [3]) | ND6 protein level / expression (MEF2D and ND6 proteins; [6]) | binding of full length MEF2D to the ND6 MEF2 site (MEF2D binding to ND6; [6]) | mitochondrial complex I activity (mitochondrial complex I) | cellular ATP level (SN4741 cells [4]) | hydrogen peroxide production by mitochondria (SN4741 cells [4]) | mitochondrial membrane potential (SN4741 cells [4]; JC-1) | level of L-strand promoter (LSP) transcripts [5]
1 | C[n+]1ccc(-c2ccccc2)cc1 [MPP+, 1-methyl-4-phenylpyridinium] | loss of neuronal viability in a dose dependent manner | decrease | decrease | not affected | not affected | greatly reduced | greatly reduced | preferentially reduced | – | – | – | – | – | – | – | – | –
2 | C=C(C)[C@H]1Cc2c(ccc3c2O[C@@H]2COc4cc(OC)c(OC)cc4[C@@H]2C3=O)O1 [rotenone] | – | decrease | decrease | not affected | not affected | greatly reduced | greatly reduced | preferentially reduced | – | – | – | – | – | – | – | – | –
3 | B1 | – | – | – | – | – | – | – | – | interferes with nuclear MEF2 function | – | – | – | – | – | – | – | –
4 | B2 | – | – | – | – | – | – | – | – | did not affect | targeted exclusively to mitochondria | did not significantly change | modulated | neither increased the protein level nor the activity | did not alter | did not alter | did not alter | increases
